This note sets out measurements from US9340538B2, “Dihydropyrimidine compounds and their application in pharmaceuticals” (SUNSHINE LAKE PHARMA CO., LTD., priority 2013, dated 2016).

Where two headings read alike, the source gives them in different places.

This test concerns HBV. The experiment in a line: In-vitro anti-HBV activity in stable HBV-producing cell line (HepG2.2.15), HBV DNA in culture fluid by qPCR. The note with it: Hepatitis B virus, read-out: HBV (% Inh.) (500 nmol). The format is cell-based. Here is the method:
In-Vitro Anti-HBV Activity of Compounds in Stable HBV-Producing Cell Line (HepG2.2.15)
HBV DNA contents in cell culture fluid were detected by the qPCR-based assay and percents of HBV inhibition by compounds (% Inh) were calculated. Specific procedures are as follows:
HepG2.2.15 cells were seeded into each well of 96-well plates, 40,000 cells per well. Cells were treated with cell culture medium containing compounds 24 hours after cell seeding. Each compound to detected percent inhibition was in duplicate and the final concentration of each compound was 500 nmol in each well. The compound-containing mediums were refreshed on day 4 post cell seeding. Culture media were collected from the HepG2.2.15 plates on day 7 post cell seeding followed by HBV DNA extraction.
HBV DNA extraction: using QIAamp 96 DNA Blood Kit (QIAGEN 51161).
PCR for quantification: PCR mix was prepared according to PCR system; PCR mix was dispensed to 384-well optical reaction plates (special for quantification); The standard diluted proportionally was added; The sample was added; The plates were sealed with optical adhesive film; PCR system was performed according to programs.
Percent of HBV inhibition of DNA replication by compound was calculated using the following equation: % Inh.=[1-HBV DNA quantity of sample/HBV DNA quantity of DMSO control]*100. II. Assay Results
On the technique in general: Real-time PCR tracks product formation cycle by cycle.

The mark [1] stands for this setting: 168 h, 500 nmol final concentration, HepG2.2.15 cells, HBV DNA in culture media on day 7 post seeding, vs DMSO control.

`CCOC(=O)C1=C(CN2CCOC(C(=O)O)C2)NC(c2nccs2)=NC1c1ccc(F)cc1Br` (stereo not shown) [Example 9, 4-((6-(2-bromo-4-fluorophenyl)-5-(ethoxycarbonyl)-2-(thiazol-2-yl)-3,6-dihydropyrimidin-4-yl)methyl)morpholine-2-carboxylic acid]: the inhibition at 0.5 µM (HepG2.2.15, 168 h) is 93.1%. Turning to `CCOC(=O)C1=C(CN2CCOCC2C(N)=O)NC(c2nccs2)=NC1c1ccc(F)cc1Br` (stereo not shown) [Example 25, Ethyl 4-(2-bromo-4-fluorophenyl)-6-((3-carbamoylmorpholino)methyl)-2-(thiazol-2-yl)-1,4-dihydropyrimidine-5-carboxylate], the inhibition at 0.5 µM under setting [1] was found to be 91.9%. Consider `CCOC(=O)C1=C(CN2CCOCC2C(=O)OC)NC(c2nccs2)=NC1c1ccc(F)cc1Br` (stereo not shown) [Example 51, Methyl 4-((6-(2-bromo-4-fluorophenyl)-5-(ethoxycarbonyl)-2-(thiazol-2-yl)-3,6-dihydropyrimidin-4-yl)methyl)morpholine-3-carboxylate], for which, under “HepG2.2.15, 168 h”, the inhibition at 0.5 µM was 91.3%.

Take `CCOC(=O)C1=C(CN2CCO[C@H](CO)C2)NC(c2nccs2)=NC1c1ccc(F)cc1Br` (stereo partly drawn) [Example 66, Ethyl 4-(2-bromo-4-fluorophenyl)-6-(((S)-2-(hydroxymethyl)morpholino)methyl)-2-(thiazol-2-yl)-1,4-dihydropyrimidine-5-carboxylate]: the inhibition at 0.5 µM (HepG2.2.15, 168 h) is 88.8%. With `CCOC(=O)C1=C(CN2CCOCC2C(=O)O)NC(c2nnc(C)s2)=NC1c1ccc(F)cc1Br` (stereo not shown) [Example 69, 4-((6-(2-bromo-4-fluorophenyl)-5-(ethoxycarbonyl)-2-(5-methyl-1,3,4-thiadiazol-2-yl)-3,6-dihydropyrimidin-4-yl)methyl)morpholine-3-carboxylic acid], the inhibition at 0.5 µM under setting [1] came out at 36.5%.

As for `CCOC(=O)C1=C(CN2CCOCC2C(=O)O)NC(c2nncs2)=NC1c1ccc(F)cc1Br` (stereo not shown) [Example 71, 4-((6-(2-bromo-4-fluorophenyl)-5-(ethoxycarbonyl)-2-(1,3,4-thiadiazol-2-yl)-3,6-dihydropyrimidin-4-yl)methyl)morpholine-3-carboxylic acid], the inhibition at 0.5 µM under setting [1] turned out to be 43.4%. With `CCOC(=O)C1=C(CN2CCO[C@H](C)[C@H]2C(=O)O)NC(c2nccs2)=NC1c1ccc(F)cc1Br` (stereo partly drawn) [Example 34, (2R,3S)-4-((6-(2-bromo-4-fluorophenyl)-5-(ethoxycarbonyl)-2-(thiazol-2-yl)-3,6-dihydropyrimidin-4-yl)methyl)-2-methylmorpholine-3-carboxylic acid], the inhibition at 0.5 µM (HepG2.2.15, 168 h) is 94.3%.

`CCOC(=O)C1=C(CN2CCOC[C@H]2COC(=O)[C@@H](N)C(C)C)NC(c2nccs2)=NC1c1ccc(F)cc1Br` (stereo partly drawn) [Example 49, Ethyl 6-(((S)-3-((((S)-2-amino-3-methylbutanoyl)oxy)methyl)morpholino)methyl)-4-(2-bromo-4-fluorophenyl)-2-(thiazol-2-yl)-1,4-dihydropyrimidine-5-carboxylate]: the inhibition at 0.5 µM under setting [1] is 96.2%. `CCOC(=O)C1=C(CN2CCOCC2C(=O)OCOC(=O)OC(C)C)NC(c2nccs2)=NC1c1ccc(Cl)cc1Cl` (stereo not shown) [Example 80, ((Isopropoxycarbonyl)oxy)methyl 4-((6-(2,4-dichlorophenyl)-5-(ethoxycarbonyl)-2-(thiazol-2-yl)-3,6-dihydropyrimidin-4-yl)methyl)morpholine-3-carboxylate]: under setting [1], the inhibition at 0.5 µM was 91.9%. In the case of `CCOC(=O)C1=C(CN2CCOCC2C(=O)O)NC(c2nccs2)=NC1c1ccc(Cl)cc1Cl` (stereo not shown) [Example 5, 4-((6-(2,4-dichlorophenyl)-5-(ethoxycarbonyl)-2-(thiazol-2-yl)-3,6-dihydropyrimidin-4-yl)methyl)morpholine-3-carboxylic acid], the inhibition at 0.5 µM (HepG2.2.15, 168 h) turned out to be 95%.

For `CCOC(=O)C1=C(CN2CCOC(CCCO)C2)NC(c2nccs2)=NC1c1ccc(F)cc1Br` (stereo not shown) [Example 133, Ethyl 4-(2-bromo-4-fluorophenyl)-6-((2-(3-hydroxypropyl)morpholino)methyl)-2-(thiazol-2-yl)-1,4-dihydropyrimidine-5-carboxylate], the inhibition at 0.5 µM under setting [1] turned out to be 92.6%.

Consider `CCOC(=O)C1=C(CN2CCOCC2C(=O)O)NC(c2nncs2)=NC1c1ccc(Cl)cc1Cl` (stereo not shown) [Example 70, 4-((6-(2,4-dichlorophenyl)-5-(ethoxycarbonyl)-2-(1,3,4-thiadiazol-2-yl)-3,6-dihydropyrimidin-4-yl)methyl)morpholine-3-carboxylic acid], for which the inhibition at 0.5 µM under setting [1] came to 63.6%. As for `CCOC(=O)C1=C(CN2CCOC[C@H]2C(=O)NCCO)NC(c2nccs2)=NC1c1ccc(F)cc1Br` (stereo partly drawn) [Example 54, Ethyl 4-(2-bromo-4-fluorophenyl)-6-(((S)-3-((2-hydroxyethyl)carbamoyl)morpholino)methyl)-2-(thiazol-2-yl)-1,4-dihydropyrimidine-5-carboxylate], the inhibition at 0.5 µM under setting [1] turned out to be 91%. Still for that read-out and setting: with `CCOC(=O)C1=C(CN2CCOC[C@H]2C(=O)NCCOC(C)=O)NC(c2nccs2)=NC1c1ccc(F)cc1Br` (stereo partly drawn) [Example 55, Ethyl 6-(((S)-3-((2-acetoxyethyl)carbamoyl)morpholino)methyl)-4-(2-bromo-4-fluorophenyl)-2-(thiazol-2-yl)-1,4-dihydropyrimidine-5-carboxylate] the figure was 93%.

Consider `CCOC(=O)C1=C(CN2CCOC[C@H]2C(=O)N(C)OC)NC(c2nccs2)=NC1c1ccc(F)cc1Br` (stereo partly drawn) [Example 60, Ethyl 4-(2-bromo-4-fluorophenyl)-6-(((S)-3-(methoxy(methyl)carbamoyl)morpholino)methyl)-2-(thiazol-2-yl)-1,4-dihydropyrimidine-5-carboxylate], for which, under setting [1], the inhibition at 0.5 µM was 94%. Turning to `COC(=O)C1=C(CN2CCOC(C(=O)O)C2)NC(c2nccs2)=NC1c1ccc(F)cc1Br` (stereo not shown) [Example 12, 4-((6-(2-bromo-4-fluorophenyl)-5-(methoxycarbonyl)-2-(thiazol-2-yl)-3,6-dihydropyrimidin-4-yl)methyl)morpholine-2-carboxylic acid], under setting [1], the inhibition at 0.5 µM was 53.8%.

With `CCOC(=O)C1=C(CN2CC(C)(C)OC[C@H]2C(=O)O)NC(c2nccs2)=NC1c1ccc(F)cc1Cl` (stereo partly drawn) [Example 23, (3S)-4-((6-(2-chloro-4-fluorophenyl)-5-(ethoxycarbonyl)-2-(thiazol-2-yl)-3,6-dihydropyrimidin-4-yl)methyl)-6,6-dimethylmorpholine-3-carboxylic acid], under setting [1], the inhibition at 0.5 µM turned out to be 45%. With `CCOC(=O)C1=C(CN2CCOCC2C(=O)NC)NC(c2nccs2)=NC1c1ccc(F)cc1Br` (stereo not shown) [Example 136, Ethyl 4-(2-bromo-4-fluorophenyl)-6-((3-(methylcarbamoyl)morpholino)methyl)-2-(thiazol-2-yl)-1,4-dihydropyrimidine-5-carboxylate], the inhibition at 0.5 µM under setting [1] was 95.8%. In the case of `CCOC(=O)C1=C(CN2CCOC(CCC(N)=O)C2)NC(c2nccs2)=NC1c1ccc(F)cc1Br` (stereo not shown) [Example 135, Ethyl 6-((2-(3-amino-3-oxopropyl)morpholino)methyl)-4-(2-bromo-4-fluorophenyl)-2-(thiazol-2-yl)-1,4-dihydropyrimidine-5-carboxylate], the inhibition at 0.5 µM under setting [1] came out at 93.3%. For `CCOC(=O)C1=C(CN2CCOC[C@@H]2CO)NC(c2nccs2)=NC1c1ccc(Cl)cc1Cl` (stereo partly drawn) [Example 42, Ethyl 4-(2,4-dichlorophenyl)-6-(((S)-3-(hydroxymethyl)morpholino)methyl)-2-(thiazol-2-yl)-1,4-dihydropyrimidine-5-carboxylate], the inhibition at 0.5 µM (HepG2.2.15, 168 h) was determined as 91.9%.

For `CCOC(=O)C1=C(CN2CCOCC2C(=O)O)NC(c2nccs2)=NC1c1ccccc1[N+](=O)[O-]` (stereo not shown) [Example 2, 4-((5-(ethoxycarbonyl)-6-(2-nitrophenyl)-2-(thiazol-2-yl)-3,6-dihydropyrimidin-4-yl)methyl)morpholine-3-carboxylic acid], the inhibition at 0.5 µM under setting [1] was 31.3%.

Take `COC(=O)C1=C(CN2CCOCC2C(=O)O)NC(c2nccs2)=NC1c1ccc(F)cc1Br` (stereo not shown) [Example 6, 4-((6-(2-bromo-4-fluorophenyl)-5-(methoxycarbonyl)-2-(thiazol-2-yl)-3,6-dihydropyrimidin-4-yl)methyl)morpholine-3-carboxylic acid]: under setting [1], the inhibition at 0.5 µM stood at 99.9%. On the same count and under the same terms, under `CCOC(=O)C1=C(CN2CCOC(C(=O)O)C2)NC(c2nccs2)=NC1c1ccc(Cl)cc1Cl` (stereo not shown) [Example 11, 4-((6-(2,4-dichlorophenyl)-5-(ethoxycarbonyl)-2-(thiazol-2-yl)-3,6-dihydropyrimidin-4-yl)methyl)morpholine-2-carboxylic acid] stands 95.6%; under `CCOC(=O)C1=C(CN2CCOCC2C(=O)O)NC(c2nccs2)=NC1c1ccc(F)cc1Cl` (stereo not shown) [Example 4, 4-((6-(2-chloro-4-fluorophenyl)-5-(ethoxycarbonyl)-2-(thiazol-2-yl)-3,6-dihydropyrimidin-4-yl)methyl)morpholine-3-carboxylic acid], 90%; under `CCOC(=O)C1=C(CN2CCO[C@H](COC(=O)C(N)C(C)C)C2)NC(c2nccs2)=NC1c1ccc(F)cc1Br` (stereo in doubt) [Example 126, Ethyl 6-(((S)-2-((((S)-2-amino-3-methylbutanoyl)oxy)methyl)morpholino)methyl)-4-(2-bromo-4-fluorophenyl)-2-(thiazol-2-yl)-1,4-dihydropyrimidine-5-carboxylate], 94.7%.
